US20160281125A1, “ANTIMICROBIAL COMPOUND SUSCEPTIBILITY TEST” (priority 2013, published 2016)

Key:
Test in all cases: Carbapenem test, Triton fixation buffer and BacUni QuickFISH staining (Example 4)
Format in all cases: cell-based
[1] = test system: K. pneumoniae strain 13882; conditions: K. pneumoniae 13882
Protocol: (§1) An isolated colony from an overnight Tryptocase Soy Agar (TSA) plate for each bacteria was suspended in 1 ml Tryptocase Soy Broth (TSB) in a 5 ml BD polystyrene round bottom tube. TSB cultures were incubated at 37° C. for 1.5 hours shaking. […] of each stationary-phase culture were transferred to 2 ml Eppendorf microcentrifuge tubes containing 500 μl of Normal Saline (BD); or 500 μl Normal Saline with imipenem, ertapenem, or meropenem at a concentration of […], […], or 40 μg/ml (26.67 μg/ml final concentration). Tubes were inverted then incubated at 37° C. stagnant for thirty minutes. Then 10 μl from each tube was pipetted onto plain glass slide on a 55° C. heat block, followed by 25 μl fixation buffer (0.5% T×100, 100 mM Tris pH 9, 24% Ethanol, and 10 mM NaCl); slide is incubated until sample is dry. Ten μl of BacUni QuickFISH hybridization buffer was added to each slide followed by a 22×22 mm coverslip. The slide was then incubated at 55° C. for 15 minutes. The slides were viewed on a fluorescence microscope 60× oil immersion on Dual TxR/FITC. Images were taken with a 1 second exposure.
(§2) The control fixation in this experiment has all the same components, except no Triton X-100. This was done to assess whether the selective lysis step is required to resolve a difference between susceptible and resistant bacteria.

E. coli strain 35218 = conditions: FIG. 9; E. coli 35218; 10 μg/ml
Protocol: as §1, §2

[2] = test system: K. pneumoniae strain BAA2146 NDM+
Protocol: as §1, §2

## C[C@@H](O)[C@H]1C(=O)N2C(C(=O)O)=C(S[C@@H]3CN[C@H](C(=O)N(C)C)C3)[C@H](C)[C@H]12 [meropenem]
[1]; FIG. 7, 10 μg/ml meropenem, fixation buffer with 0.5% Triton X-100
  BacUni QuickFISH stained intact cells after meropenem and fixation buffer: near complete absence of BacUni QuickFISH™ stained intact cells
[1]; FIG. 10, 10 μg/ml
  test result (susceptibility or resistance) by BacUni QuickFISH staining: detect susceptibility
E. coli strain 35218
  test result (susceptibility or resistance) by BacUni QuickFISH staining: detect susceptibility
[2]; FIG. 8, 10 μg/ml meropenem, fixation buffer with 0.5% Triton X-100
  BacUni QuickFISH stained intact cells after meropenem and fixation buffer: near complete absence of BacUni QuickFISH™ stained intact cells
[2]; FIG. 11, 10 μg/ml
  test result (susceptibility or resistance) by BacUni QuickFISH staining: detect resistance
